From PMC5218480 (PLoS ONE, 2017)

Test system: MV-4-11 cells
Assay: Gene expression microarray analysis (Affymetrix PrimeView) and GSEA
Format: cell-based, human
Set-up: RFU PODN (11730768_x_at) / Fold change /veh PODN (11730768_x_at) / RFU LINC00158 (11744669_a_at) / Fold change /veh LINC00158 (11744669_a_at) / RFU DUSP10 (11751237_a_at) / Fold change /veh DUSP10 (11751237_a_at) / RFU ID3 (11757404_x_at) / Fold change /veh ID3 (11757404_x_at) / RFU PLEKHG5 (11737974_s_at) / Fold change /veh PLEKHG5 (11737974_s_at) / RFU LRRC4B (11730491_at) / Fold change /veh LRRC4B (11730491_at) / RFU GIMAP4 (11747438_a_at) / Fold change /veh GIMAP4 (11747438_a_at) / RFU KRT8 (11758183_x_at) / Fold change /veh KRT8 (11758183_x_at) / RFU CNN1 (11734310_a_at) / Fold change /veh CNN1 (11734310_a_at) / RFU VPS37D (11726825_at) / Fold change /veh VPS37D (11726825_at) / RFU C10orf10 (11716522_x_at) / Fold change /veh C10orf10 (11716522_x_at) / RFU KIR2DL2 /// KIR2DL4 /// KIR2DL5A /// KIR2DL5B /// KIR2DS1 /// KIR2DS2 /// KIR2DS3 /// KIR2DS4 /// KIR3DL3 /// KIR3DL3 /// KIR3DS1 (11738374_at) / Fold change /veh KIR2DL2 /// KIR2DL4 /// KIR2DL5A /// KIR2DL5B /// KIR2DS1 /// KIR2DS2 /// KIR2DS3 /// KIR2DS4 /// KIR3DL3 /// KIR3DL3 /// KIR3DS1 (11738374_at) / RFU C1QL1 (11718748_at) / Fold change /veh C1QL1 (11718748_at) / RFU TMPRSS4 (11747572_a_at) / Fold change /veh TMPRSS4 (11747572_a_at) / RFU HAMP (11756126_x_at) / Fold change /veh HAMP (11756126_x_at) / RFU RNFT2 (11725882_a_at) / Fold change /veh RNFT2 (11725882_a_at) / RFU NR4A2 (11747474_a_at) / Fold change /veh NR4A2 (11747474_a_at) / RFU ABCC12 (11746883_a_at) / Fold change /veh ABCC12 (11746883_a_at) / RFU TMEM136 (11760407_x_at) / Fold change /veh TMEM136 (11760407_x_at) / RFU CLDN22 /// WWC2 (11732394_at) / Fold change /veh CLDN22 /// WWC2 (11732394_at) / RFU HLA-DPB1 (11760878_x_at) / Fold change /veh HLA-DPB1 (11760878_x_at) / RFU SPINT1 (11716480_a_at) / Fold change /veh SPINT1 (11716480_a_at) / RFU GAP43 (11754022_s_at) / Fold change /veh GAP43 (11754022_s_at) / RFU A4GNT (11735810_at) / Fold change /veh A4GNT (11735810_at) / RFU PRB3 (11715151_x_at) / Fold change /veh PRB3 (11715151_x_at) / RFU TUBB4B (11761932_at) / Fold change /veh TUBB4B (11761932_at) / RFU CAPN14 (11732068_a_at) / Fold change /veh CAPN14 (11732068_a_at) / RFU TMCC2 (11721928_a_at) / Fold change /veh TMCC2 (11721928_a_at) / RFU IRGQ (11745062_a_at) / Fold change /veh IRGQ (11745062_a_at) / RFU FAM174B (11720279_a_at) / Fold change /veh FAM174B (11720279_a_at) / RFU TMPRSS4 (11748680_a_at) / Fold change /veh TMPRSS4 (11748680_a_at) / RFU FAM212B (11763350_a_at) / Fold change /veh FAM212B (11763350_a_at) / RFU PLEKHG5 (11743358_a_at) / Fold change /veh PLEKHG5 (11743358_a_at) / RFU ZSCAN30 (11745921_a_at) / Fold change /veh ZSCAN30 (11745921_a_at) / RFU CMKLR1 (11741424_a_at) / Fold change /veh CMKLR1 (11741424_a_at) / RFU LOC101060620 /// MAPK8IP1 (11723275_at) / Fold change /veh LOC101060620 /// MAPK8IP1 (11723275_at) / RFU SPTSSB (11747773_x_at) / Fold change /veh SPTSSB (11747773_x_at) / RFU PRSS12 (11739890_at) / Fold change /veh PRSS12 (11739890_at) / RFU BIN1 (11741810_x_at) / Fold change /veh BIN1 (11741810_x_at) / RFU WNT11 (11732464_a_at) / Fold change /veh WNT11 (11732464_a_at) / RFU C10orf10 (11716521_a_at) / Fold change /veh C10orf10 (11716521_a_at) / RFU C5orf56 (11738089_at) / Fold change /veh C5orf56 (11738089_at) / RFU CYB561 (11721691_x_at) / Fold change /veh CYB561 (11721691_x_at) / RFU ANKRD19P (11752326_a_at) / Fold change /veh ANKRD19P (11752326_a_at) / RFU OR2T12 /// OR2T33 /// OR2T8 (11738714_s_at) / Fold change /veh OR2T12 /// OR2T33 /// OR2T8 (11738714_s_at) / RFU VCAN (11748164_a_at) / Fold change /veh VCAN (11748164_a_at) / RFU JSRP1 (11732532_at) / Fold change /veh JSRP1 (11732532_at) / RFU KRTAP10-11 (11738290_x_at) / Fold change /veh KRTAP10-11 (11738290_x_at) / RFU MYO3A (11730013_a_at) / Fold change /veh MYO3A (11730013_a_at) / RFU EBF3 (11725865_a_at) / Fold change /veh EBF3 (11725865_a_at) / RFU CAMK2N1 (11719241_x_at) / Fold change /veh CAMK2N1 (11719241_x_at) / RFU C5orf56 (11738088_a_at) / Fold change /veh C5orf56 (11738088_a_at) / RFU OLFML3 (11715873_a_at) / Fold change /veh OLFML3 (11715873_a_at) / RFU LOC100653217 /// NTM (11731650_a_at) / Fold change /veh LOC100653217 /// NTM (11731650_a_at) / RFU MAPK11 (11762145_a_at) / Fold change /veh MAPK11 (11762145_a_at) / RFU FIZ1 (11724087_x_at) / Fold change /veh FIZ1 (11724087_x_at) / RFU OASL (11726364_x_at) / Fold change /veh OASL (11726364_x_at) / RFU SOX15 (11748057_x_at) / Fold change /veh SOX15 (11748057_x_at) / RFU CD79A (11719716_a_at) / Fold change /veh CD79A (11719716_a_at) / RFU HIST1H1D (11736915_at) / Fold change /veh HIST1H1D (11736915_at) / RFU CASKIN2 (11723855_a_at) / Fold change /veh CASKIN2 (11723855_a_at) / RFU LOC730098 (11760151_x_at) / Fold change /veh LOC730098 (11760151_x_at) / RFU OR4N2 (11742367_at) / Fold change /veh OR4N2 (11742367_at) / RFU PRRT2 (11749266_a_at) / Fold change /veh PRRT2 (11749266_a_at) / RFU SNX32 (11753110_a_at) / Fold change /veh SNX32 (11753110_a_at) / RFU CDHR5 (11726645_a_at) / Fold change /veh CDHR5 (11726645_a_at) / RFU RCAN1 (11760418_a_at) / Fold change /veh RCAN1 (11760418_a_at) / RFU FAM167A (11723789_a_at) / Fold change /veh FAM167A (11723789_a_at) / RFU FAM26E (11764081_at) / Fold change /veh FAM26E (11764081_at) / RFU ISYNA1 (11749810_s_at) / Fold change /veh ISYNA1 (11749810_s_at) / RFU ACY1 (11761880_at) / Fold change /veh ACY1 (11761880_at) / RFU 11764098_at / Fold change /veh 11764098_at / RFU SAMD14 (11745864_x_at) / Fold change /veh SAMD14 (11745864_x_at) / RFU NPB (11741838_a_at) / Fold change /veh NPB (11741838_a_at) / RFU TMPRSS6 (11731388_a_at) / Fold change /veh TMPRSS6 (11731388_a_at) / RFU KRTAP10-2 (11738614_at) / Fold change /veh KRTAP10-2 (11738614_at) / RFU ARHGAP8 /// PRR5-ARHGAP8 (11727945_x_at) / Fold change /veh ARHGAP8 /// PRR5-ARHGAP8 (11727945_x_at) / RFU KRTAP5-7 /// NADSYN1 (11734609_at) / Fold change /veh KRTAP5-7 /// NADSYN1 (11734609_at) / RFU RASL12 (11751679_a_at) / Fold change /veh RASL12 (11751679_a_at) / RFU CDKN2B (11736163_a_at) / Fold change /veh CDKN2B (11736163_a_at) / RFU PRF1 (11729649_at) / Fold change /veh PRF1 (11729649_at) / RFU, ZNF638 /// ZNF638-IT1 / Fold change vs veh, ZNF638 /// ZNF638-IT1 / RFU, PANK3 / Fold change vs veh, PANK3 / RFU, SH3YL1 / Fold change vs veh, SH3YL1 / RFU, ZEB2 / Fold change vs veh, ZEB2 / RFU, NRIP1 / Fold change vs veh, NRIP1 / RFU, PTTG1IP / Fold change vs veh, PTTG1IP / RFU, CAPN2 / Fold change vs veh, CAPN2 / RFU, MED14 / Fold change vs veh, MED14 / RFU, SNORA58 / Fold change vs veh, SNORA58 / RFU, C1orf63 / Fold change vs veh, C1orf63 / RFU, LRRFIP1 / Fold change vs veh, LRRFIP1 / RFU, NDUFAF7 / Fold change vs veh, NDUFAF7 / RFU, SLC12A2 / Fold change vs veh, SLC12A2 / RFU, IBTK / Fold change vs veh, IBTK / RFU, ESF1 / Fold change vs veh, ESF1 / Fold change vs veh, TMEM50B / RFU, TAOK1 / Fold change vs veh, TAOK1 / RFU, ACBD3 / Fold change vs veh, ACBD3 / RFU, TMA16 / Fold change vs veh, TMA16 / RFU, RWDD3 / Fold change vs veh, RWDD3 / RFU, BCAT1 / Fold change vs veh, BCAT1 / RFU, EDEM3 / Fold change vs veh, EDEM3 / RFU, TMEM33 / Fold change vs veh, TMEM33 / RFU, WDR75 / Fold change vs veh, WDR75 / RFU, AHCTF1 / Fold change vs veh, AHCTF1 / RFU, TFRC / Fold change vs veh, TFRC / RFU, ZDHHC17 / Fold change vs veh, ZDHHC17 / RFU, NOM1 / Fold change vs veh, NOM1 / RFU, ARL8B / Fold change vs veh, ARL8B / RFU, ZBTB11 / Fold change vs veh, ZBTB11 / RFU, TAMM41 / Fold change vs veh, TAMM41 / RFU, KIAA1704 /// LOC100996395 / Fold change vs veh, KIAA1704 /// LOC100996395 / RFU, ING1 / Fold change vs veh, ING1 / RFU, TRMT61B / Fold change vs veh, TRMT61B / RFU, FUBP3 / Fold change vs veh, FUBP3 / RFU, TP53 / Fold change vs veh, TP53 / RFU, TNKS2 / Fold change vs veh, TNKS2 / RFU, ZFP14 / Fold change vs veh, ZFP14 / RFU, ACTR2 / Fold change vs veh, ACTR2 / RFU, PPP3R1 / Fold change vs veh, PPP3R1 / RFU, PIK3R1 / Fold change vs veh, PIK3R1 / RFU, HNRNPA1 / Fold change vs veh, HNRNPA1 / RFU, RNF170 / Fold change vs veh, RNF170 / RFU, ZNF28 / Fold change vs veh, ZNF28 / RFU, RNGTT / Fold change vs veh, RNGTT / RFU, OGT / Fold change vs veh, OGT / RFU, BRD1 / Fold change vs veh, BRD1 / RFU, MARS / Fold change vs veh, MARS / RFU, ZNF655 / Fold change vs veh, ZNF655 / RFU, FAHD1 / Fold change vs veh, FAHD1 / RFU, BDP1 / Fold change vs veh, BDP1 / RFU, LRRCC1 / Fold change vs veh, LRRCC1 / RFU, ARID1A / Fold change vs veh, ARID1A / RFU, ZNF146 / Fold change vs veh, ZNF146 / RFU, ZNF330 / Fold change vs veh, ZNF330 / RFU, GPN3 / Fold change vs veh, GPN3 / RFU, C9orf123 / Fold change vs veh, C9orf123 / RFU, N4BP2L2 / Fold change vs veh, N4BP2L2 / RFU, ARFIP1 / Fold change vs veh, ARFIP1 / RFU, FAM179B / Fold change vs veh, FAM179B / RFU, BCL10 / Fold change vs veh, BCL10 / RFU, UHRF1BP1L / Fold change vs veh, UHRF1BP1L / RFU, BET1 / Fold change vs veh, BET1 / RFU, CNOT2 / Fold change vs veh, CNOT2 / RFU, ZNF268 / Fold change vs veh, ZNF268 / Fold change vs veh, ZNF507 / RFU, DGCR2 / Fold change vs veh, DGCR2 / RFU, WDSUB1 / Fold change vs veh, WDSUB1 / Fold change vs veh, HSP90B1 /// MIR3652 / RFU, ADSS / Fold change vs veh, ADSS / RFU, GK / Fold change vs veh, GK / RFU, ZNF148 / Fold change vs veh, ZNF148 / RFU, TAF9 / Fold change vs veh, TAF9 / RFU, SLC1A5 / Fold change vs veh, SLC1A5 / RFU, SLMO2 / Fold change vs veh, SLMO2 / RFU, ABCC4 / Fold change vs veh, ABCC4 / RFU, LOC101060439 /// RAP1B / Fold change vs veh, LOC101060439 /// RAP1B / RFU, RFX7 / Fold change vs veh, RFX7 / RFU, GTPBP10 / Fold change vs veh, GTPBP10 / RFU, CNEP1R1 / Fold change vs veh, CNEP1R1 / RFU, BIVM-ERCC5 /// ERCC5 / Fold change vs veh, BIVM-ERCC5 /// ERCC5 / RFU, ILF3 / Fold change vs veh, ILF3 / RFU 11762660_at / Fold change /veh 11762660_at / RFU VCAN (11757783_s_at) / Fold change /veh VCAN (11757783_s_at) / RFU DDX43 (11728927_at) / Fold change /veh DDX43 (11728927_at) / RFU KRT8 (11758188_x_at) / Fold change /veh KRT8 (11758188_x_at) / RFU NKD1 (11759106_at) / Fold change /veh NKD1 (11759106_at) / RFU SRD5A1 (11742802_a_at) / Fold change /veh SRD5A1 (11742802_a_at) / RFU TPSAB1 /// TPSB2 (11721975_s_at) / Fold change /veh TPSAB1 /// TPSB2 (11721975_s_at) / RFU GSTM3 (11746129_a_at) / Fold change /veh GSTM3 (11746129_a_at) / RFU IL23R (11737362_x_at) / Fold change /veh IL23R (11737362_x_at) / RFU TMEM51 (11727254_a_at) / Fold change /veh TMEM51 (11727254_a_at) / RFU PIWIL2 (11732686_x_at) / Fold change /veh PIWIL2 (11732686_x_at) / RFU ORM1 (11744905_x_at) / Fold change /veh ORM1 (11744905_x_at) / RFU CCDC152 (11743942_at) / Fold change /veh CCDC152 (11743942_at) / RFU ECM1 (11717891_a_at) / Fold change /veh ECM1 (11717891_a_at) / RFU IL23R (11748794_a_at) / Fold change /veh IL23R (11748794_a_at) / RFU TNFAIP8L3 (11732012_x_at) / Fold change /veh TNFAIP8L3 (11732012_x_at) / RFU MBOAT4 (11741988_at) / Fold change /veh MBOAT4 (11741988_at) / RFU 11764193_at / Fold change /veh 11764193_at / RFU TMEM53 (11763286_at) / Fold change /veh TMEM53 (11763286_at) / RFU MAGEB2 (11727129_at) / Fold change /veh MAGEB2 (11727129_at) / RFU TMEM200A (11744735_a_at) / Fold change /veh TMEM200A (11744735_a_at) / RFU CCDC152 (11751479_a_at) / Fold change /veh CCDC152 (11751479_a_at) / RFU FAM211A (11726209_a_at) / Fold change /veh FAM211A (11726209_a_at) / RFU RGS16 (11746705_a_at) / Fold change /veh RGS16 (11746705_a_at) / RFU VCAN (11755009_s_at) / Fold change /veh VCAN (11755009_s_at) / RFU RHOB (11743442_s_at) / Fold change /veh RHOB (11743442_s_at) / RFU RGS16 (11720943_a_at) / Fold change /veh RGS16 (11720943_a_at) / RFU RGS16 (11720944_at) / Fold change /veh RGS16 (11720944_at) / RFU, VPS4B / Fold change vs veh, VPS4B / RFU, CREB1 / Fold change vs veh, CREB1 / RFU, DNAJC13 / Fold change vs veh, DNAJC13 / RFU, GNAQ / Fold change vs veh, GNAQ / RFU, CDK5R1 / Fold change vs veh, CDK5R1 / RFU, ZRANB3 / Fold change vs veh, ZRANB3 / RFU, CUL4A / Fold change vs veh, CUL4A / RFU, CCNY / Fold change vs veh, CCNY / RFU, UFL1 / Fold change vs veh, UFL1 / RFU, COG3 / Fold change vs veh, COG3 / RFU, DIAPH2 / Fold change vs veh, DIAPH2 / RFU, SKA2 / Fold change vs veh, SKA2 / RFU, AFF3 / Fold change vs veh, AFF3 / RFU, LMF1 / Fold change vs veh, LMF1 / RFU, IPO11 / Fold change vs veh, IPO11 / RFU, DFFB / Fold change vs veh, DFFB / RFU, FOXP1 / Fold change vs veh, FOXP1 / RFU, CARD8 / Fold change vs veh, CARD8 / RFU, STRN3 / Fold change vs veh, STRN3 / RFU, ADK / Fold change vs veh, ADK / RFU, RASSF2 / Fold change vs veh, RASSF2 / RFU, WIPF1 / Fold change vs veh, WIPF1 / RFU, LARP1B / Fold change vs veh, LARP1B / RFU, RASA1 / Fold change vs veh, RASA1 / RFU, RB1 / Fold change vs veh, RB1 / RFU, PPFIA1 / Fold change vs veh, PPFIA1 / RFU, MAT2A / Fold change vs veh, MAT2A / RFU, CCT5 / Fold change vs veh, CCT5 / RFU, WDR92 / Fold change vs veh, WDR92 / RFU, CUX1 / Fold change vs veh, CUX1 / RFU, TTC7A / Fold change vs veh, TTC7A / RFU, TMEM135 / Fold change vs veh, TMEM135 / RFU, DEPTOR / Fold change vs veh, DEPTOR / RFU, CPM / Fold change vs veh, CPM / RFU, DNAJB6 / Fold change vs veh, DNAJB6 / RFU, CACNA2D3 / Fold change vs veh, CACNA2D3 / RFU, DTX4 / Fold change vs veh, DTX4 / RFU, TFCP2 / Fold change vs veh, TFCP2 / RFU, GMCL1 /// GMCL1P1 / Fold change vs veh, GMCL1 /// GMCL1P1 / RFU, AEBP2 / Fold change vs veh, AEBP2 / RFU, SNHG1 /// SNORD22 /// SNORD25 /// SNORD26 /// SNORD27 /// SNORD28 /// SNORD29 /// SNORD31 / Fold change vs veh, SNHG1 /// SNORD22 /// SNORD25 /// SNORD26 /// SNORD27 /// SNORD28 /// SNORD29 /// SNORD31 / Fold change (Aza/veh), C12orf56 (ProbeSet 11735607_a_at) / Fold change (ACY-1035/veh), C12orf56 (ProbeSet 11735607_a_at) / Fold change (Aza/veh), FGFR1OP (ProbeSet 11751329_s_at) / Fold change (ACY-1035/veh), FGFR1OP (ProbeSet 11751329_s_at) / Fold change (Aza/veh), VPS36 (ProbeSet 11739960_a_at) / Fold change (ACY-1035/veh), VPS36 (ProbeSet 11739960_a_at) / RFU SYPL1 (11715823_x_at) / Fold change /veh SYPL1 (11715823_x_at) / RFU IGFBP7 (11715501_s_at) / Fold change /veh IGFBP7 (11715501_s_at) / RFU REEP3 (11722064_at) / Fold change /veh REEP3 (11722064_at) / RFU IGLL1 (11728026_x_at) / Fold change /veh IGLL1 (11728026_x_at): dose or concentration left out as unconfirmed
Details: MV-4-11 cells, 48 hours

## Nc1ccc(-c2cccs2)cc1NC(=O)c1ccc2c(c1)cc(C1CC1)n2CCN1CCOCC1 [ACY-1035]
  RFU TMEM200A (11744735_a_at): 5.05 RFU
